The subject of data set [1] is male avian broiler chicks. The data set can be described thus: Bioavailability of zinc in chicks fed a zinc-free basal corn-soybean diet plus zinc source, 20-day experiment. The format is in vivo. The protocol:
An experiment was conducted to compare the bioavailability of zinc from zinc diammine chloride (ZDC or Zn(NH3)2Cl2) with that of reagent grade zinc sulfate heptahydrate (ZSH or ZnSO4.7H2O). A zinc-free basal corn-soybean diet was formulated. The zinc sources were added to the basal diet at doses of 4 mg Zn per kg and 8 mg Zn per kg. The basal and experimental diets were mixed using a horizontal mixer for basal diet and a Hobart mixer for individual treatments. All diets were fed as a mash feed. Eighty male avian broiler chicks were used in the 20-day experiment. The test birds were randomly divided into 20 pens of 4 birds each. The birds were housed in thermostatically controlled, stainless steel battery cages with raised wire flooring in an environmentally controlled facility. Environmental conditions for the birds (i.e., floor space, temperature, lighting, feeder and water space) were similar for all test groups. The chicks were pretested for the first three days after hatching; and then they were switched to the basal diet until the start of the study at day eight. Water that had been deionized and distilled and feed was available for ad libitum consumption.
All feed added to the pens was recorded. Feed was weighed back at the conclusion of the trial and the feed intake was calculated. The ratio of weight gain to feed consumed was calculated for the period using the average weight gain of birds per treatment divided by the average feed consumption for the treatment throughout the test period.

Data set [2] in a line: Soluble copper versus pH on titration of TBCC mother liquor with NH4OH. Format: physicochemical. To be noted: pH about 5.6, room temperature, ammonium chloride mother liquor. On the procedure: The starting material used for this example was mother liquor remaining after the production of tribasic copper chloride (TBCC) from spent circuit board chemical etchants. The particular sample of mother liquor was slightly acidic, contained several hundred grams per liter of ammonium chloride and about 12 g/L of dissolved copper. The series of tests were conducted at room temperature. A 400 mL sample was titrated with NH4OH solution having a specific gravity of 0.93 and containing about 16% NH3 by weight. The pH and soluble copper concentrations were measured after each increment of NH4OH solution added. The results are illustrated in FIG. 4. Precipitation of copper initiated at a pH of about 4.1 and continued until the pH reached about 5.5. It was apparent that the copper amine chloride salt was forming at least within the pH range of 4.5 to 5.6. As expected from the stoichiometry of Equation 3, about 1 mole of copper was precipitated for every 2 moles of ammonia added. For this particular series of tests, the minimum solubility of copper was about 1,000 mg/L at a pH of about 5.6. As more ammonium hydroxide was added to raise the pH above 5.6, the copper amine chloride salt dissolved to form a navy blue soluble copper tetrammine complex. At a pH above about 7.2 virtually all of the copper ammine chloride salt had dissolved. […]

Structures are written as SMILES.

As to `N.N.[Cl][Zn][Cl]` [ZDC, zinc diammine chloride], in data set [1] (4 mg Zn per kg feed), the “improvement of overall weight gain compared to the control” value was “about 37%” and the “improvement of weight gain per unit of feed compared to the control” value was “about 24%”. Also, in data set [1] (8 mg Zn per kg feed), the “improvement of overall weight gain compared to the control” value is approximately 75% and the “improvement of weight gain per unit of feed compared to the control” value is approximately 28%. In data set [1] (Zn 4 mg/kg added to basal diet), the “Feed Intake” value is on record as 189.8 g/chick, the “Gain:Feed” value stood at 523 g/kg and the “Weight Gain” value is reported as 99.3 g/chick. In addition, in data set [1] (Zn 8 mg/kg added to basal diet), the “Feed Intake” value was determined as 235.3 g/chick, the “Gain:Feed” value is given as 538 g/kg and the “Weight Gain” value was 126.5 g/chick.
In the case of `O.O.O.O.O.O.O.O=S(=O)([O-])[O-].[Zn+2]` [ZnSO4•7H2O, zinc sulfate heptahydrate, reference compound], in data set [1] (Zn 4 mg/kg added to basal diet), the “Feed Intake” value was determined as 201.8 g/chick, the “Gain:Feed” value amounted to 497 g/kg and the “Weight Gain” value turned out to be 100.5 g/chick. Also, in data set [1] (Zn 8 mg/kg added to basal diet), the “Feed Intake” value was 233.5 g/chick, the “Gain:Feed” value stood at 514 g/kg and the “Weight Gain” value was 119.8 g/chick.
Consider `N.N.[Cl][Cu][Cl]` [CDC, copper diammine chloride], for which the “minimum solubility of copper” value in data set [2] is recorded as “about 1,000 mg/L”.

For the origin of these results see patent publication US20080113063A1, “MICRONUTRIENT SUPPLEMENT” (priority 2006, published 2008).
